Laboratory results published in patent publication US20050260290A1, “Botanical anti-inflammatory compositions and methods” (RUTGERS, THE STATE UNIVERSITY OF NEW JERSEY, priority 2004, published 2005).
Values belong to the compound of their own block, whether it stands above or below them.

Assays:
[1] = system: carrageenan hind paw edema; assay: rat hind paw edema assay, two studies (Example 4); assay type: in vivo, Long-Evans-derived rats; conditions: 1 h after carrageenan (positive control)
Description: Two studies were conducted. […] The anti-inflammatory extract product was administered to the groups at different dose protocols. Comparisons can be made relative to the negative and positive control animal groups. Groups 2 and 4 of the first and second study, and Groups 2 and 5 of the second study, received a single dose of the extract product one hour after hind paw injection of carrageenan (0.1 ml of a suspension of 1 wt. % carrageenan in […], intraplantar). Group 3 of both studies received a first dose of the extract product one hour before, and a second dose of the extract product one hour after, hind paw injection of carrageenan. […] Group 4 of the second study received a dose of the extract product one hour before administration of carrageenan. Group 5 of the first study and Group 6 of the second study received indomethacin, a commercially available nonsteroidal anti-inflammatory drug, one hour after hind paw injection of carrageenan. Indomethacin was administered as a positive control reference compound, and Groups 5 and 6 (of the first and second studies, respectively) represent positive control groups. The severity of the hind paw edema (i.e., hind paw volume) was recorded at 3 hours after, 5 hours after, and 24 hours after carrageenan administration using a plethysmometer (Ugo Basile, Italy). The hind paw volume measurements after carrageenan administration correspond to the amount of induced swelling, and a reduction in the percentage of increase in hind paw volume relative to the percentage of increase observed in hind paw volume for the negative control group corresponds to a reduction in inflammation. For example, the hind paw volume of the negative control group of the first study (Group 1) increased by about 45% whereas the hind paw volume of Group 2 (which received an Aframomum melegueta extract product) increased by only 25%.

COX-2 enzyme = target: T1, COX-2 enzyme (Ovis aries, UniProt P79208); assay: colorimetric COX (ovine) inhibitor screening assay, COX-2 inhibition; conditions: peaks of subfractionated paradol fraction (Method C)
T1 sequence (P79208 17-603): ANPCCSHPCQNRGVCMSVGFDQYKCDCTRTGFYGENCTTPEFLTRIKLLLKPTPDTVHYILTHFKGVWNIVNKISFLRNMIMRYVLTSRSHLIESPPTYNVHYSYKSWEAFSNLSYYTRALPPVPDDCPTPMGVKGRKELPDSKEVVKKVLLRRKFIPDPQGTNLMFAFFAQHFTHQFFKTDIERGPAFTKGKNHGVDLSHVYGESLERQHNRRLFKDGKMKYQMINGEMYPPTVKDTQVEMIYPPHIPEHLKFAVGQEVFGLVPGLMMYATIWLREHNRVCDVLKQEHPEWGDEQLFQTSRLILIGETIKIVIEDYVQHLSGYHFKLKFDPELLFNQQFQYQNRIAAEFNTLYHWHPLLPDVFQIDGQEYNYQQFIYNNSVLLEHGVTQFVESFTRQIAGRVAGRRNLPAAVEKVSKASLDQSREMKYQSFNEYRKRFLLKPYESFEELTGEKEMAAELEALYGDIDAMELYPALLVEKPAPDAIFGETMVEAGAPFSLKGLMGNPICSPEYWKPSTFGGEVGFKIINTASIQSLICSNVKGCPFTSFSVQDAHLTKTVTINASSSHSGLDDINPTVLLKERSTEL
Description: The anti-inflammatory extract product of Example 1 was suspended in 95 vol. % ethanol at a concentration of 1 milligram (mg) extract product per milliliter (mL) ethanol to form an A. melegueta solution. The activity of the solution was tested with a colorimetric COX (ovine) inhibitor screening assay (catalogue no. 760111, Cayman Chemical, Ann Arbor, Mich.). The screening assay measures the peroxidase activity of cyclooxygenases by monitoring the appearance of oxidized N,N,N′N′-tetramethyl-p-phenylenediamine (TMPD) at 590 nm as previously described [Kulmacz, Prostaglandins, 25:531-540 (1983)]. A (relatively) higher TMPD concentration corresponds to a greater absorbance at 590 nm, a greater peroxidase activity, and a greater COX-2 activity (corresponding to the degree of inhibition of COX-2 activity).
Three milliliters (mL) of assay buffer concentrate (as provided) was diluted with 27 mL HPLC-grade water to provide a final assay buffer (0.1M Tris-HCl, pH 8). This buffer assay solution was used to prepare heme and COX-2 enzyme assay solutions. […]
10 μl of 95 vol. % ethanol was then added to the background and negative control wells. […] The absorbance for each well was measured at 590 nm using a plate reader.
The inhibitory activity was calculated from these absorbance readings. […]

[2] = system: carrageenan hind paw edema; assay: rat hind paw edema assay (Example 3); assay type: in vivo, Long-Evans-derived rats; conditions: 150 mg/kg; 3 h after carrageenan
Description: Hind paw edema models have been extensively described [see, for example, […] et al. (eds.), Inflammation Protocols, pp. 115-122 (2003)] and have been accepted as in vivo models of human inflammation. […] Aspirin was administered to another group of three Long-Evans rats at 150 mg/kg dose as a positive control reference compound. The severity of the hind paw edema (i.e., the hind paw volume) was recorded 3 hours after carrageenan administration using a plethysmometer (Ugo Basile, Italy). The hind paw volume measurements correspond to the amount of induced swelling, and therefore a reduction in the swelling corresponds to a reduction in inflammation. The anti-inflammatory activity of the Aframomum melegueta extract products can be expressed as a percentage of edema reduction (relative to the negative control (i.e., full edema)).

[3] = system: acetic acid-induced writhing; assay: acetic acid-induced writhing assay; assay type: in vivo, mice; conditions: 100 mg/kg
Description: This writhing assay has been previously described [Inoue et al., Arzneimittelforschung, 41(3):235-239 (1991).] […] An aqueous solution comprising 2 vol. % Tween 80 was administered as a negative control to another group of three mice. Aspirin was administered at 100 mg/kg as a positive control to a fourth group of three mice. The number of writhings per animal group was observed during the period beginning at about five minutes after acetic acid challenge and ending at about ten minutes after acetic acid challenge. The average number of writhings per animal group is an indication of pain, e.g., inflammation-induced pain, and therefore a reduction in the number of writhings per unit time per animal group corresponds to a reduction in inflammation. The reduction in number of writhings can be expressed relative to the negative control value as a percentage of inflammation inhibition.

[4] = first study Group 5: 15 mg/kg, 3 h
[5] = first study Group 5: 15 mg/kg, 5 h
[6] = first study Group 5: 15 mg/kg, 24 h
[7] = second study Group 6: 15 mg/kg, 3 h
[8] = second study Group 6: 15 mg/kg, 5 h
[9] = second study Group 6: 15 mg/kg, 24 h

SMILES: COc1ccc2c(c1)c(CC(=O)O)c(C)n2C(=O)c1ccc(Cl)cc1 [Indomethacin, indomethacin]
Increase in rat hind paw volume after carrageenan administration [1, 4]: 44%
rat hind paw volume after carrageenan administration [1, 4]: 1.51 ± 0.05 mL
Increase in rat hind paw volume after carrageenan administration [1, 5]: 29%
rat hind paw volume after carrageenan administration [1, 5]: 1.35 ± 0.08 mL
Increase in rat hind paw volume after carrageenan administration [1, 6]: 12%
rat hind paw volume after carrageenan administration [1, 6]: 1.18 ± 0.1 mL
Increase in rat hind paw volume after carrageenan administration [1, 7]: 44%
rat hind paw volume after carrageenan administration [1, 7]: 1.51 ± 0.05 mL
Increase in rat hind paw volume after carrageenan administration [1, 8]: 29%
rat hind paw volume after carrageenan administration [1, 8]: 1.35 ± 0.08 mL
Increase in rat hind paw volume after carrageenan administration [1, 9]: 12%
rat hind paw volume after carrageenan administration [1, 9]: 1.18 ± 0.1 mL

COX-2 inhibitory activity (COX-2 enzyme; 1 mg/mL): 74%
SMILES: CCCCCCCC(=O)CCc1ccc(O)c(OC)c1 (single isomer, unassigned) [first peak, [6]-paradol]

inhibition at 1000 µg/mL (COX-2 enzyme; read-out: COX-2 inhibitory activity, 1 mg/mL): 83%
SMILES: CCCCCCCC(=O)CCc1ccc(O)c(OC)c1 (single isomer, unassigned) [second peak, [6]-paradol]

SMILES: CC(=O)Oc1ccccc1C(=O)O [aspirin]
reduction of hind paw edema [2]: about 43%
percentage of inflammation inhibition (writhing) [3]: 80%
average number of writhings per animal group ([3]; 5-10 min after challenge): 3
